Earlier results in patent US20050095288A1, “Decongestant and expectorant tablets” (Andrx Labs, LLC, priority 2003, published 2005).

Conditions: background statement, no test described

COc1ccccc1OCC(O)CO (stereo not shown) [Guaifenesin, 3-(2-methoxyphenoxy)-1,2-propane-diol]
typical plasma half-life: approximately one
